Results: patent US20240100172A1, “METHODS AND COMPOUNDS FOR TARGETED AUTOPHAGY” (Hangzhou Jijing Pharmaceutical Technology Limited, priority 2020, published 2024)
Marks after values point to notes of the source that are not given here.

Key:
KRAS = target: T1, KRAS (Homo sapiens, UniProt P01116, G12C); test: KRAS levels in NCI-H2030 cells (Western blot); assay type: cell-based
T1 construct: endogenous in cells; host or cells: NCI-H2030
Experimental: The following protocol was used to test the effect of exemplary compounds on KRAS levels in NCI-H2030 cells.
On Day 1, seed NCI-N2030 cells were placed into 6-well plates (3.5×10^5 cells/well/2 mL) and incubated for 24 hours. On Day 2, 6 μL compound solutions were added into testing wells in order to obtain compound concentrations of 3.33 μM and 10 μM—with DMSO concentrations of 0.3%. The wells were thoroughly agitated and incubated for 24 hours. On Day 3, the supernatant in the testing wells was discarded, and the testing wells were washed once with 1 mL of cold PBS. Then, 100 μL of RIPA buffer (Boston BioProducts BP-115D) was added to the testing wells with 1× complete protease inhibitor (Roche, #4693116001) and phosphatase inhibitor (Roche, #4906837001). The wells were then agitated by pipetting a few times, the testing plates were held on ice for 30 minutes to affect complete lysis of the cells. The cell lysate from the testing wells was then collected into EP tubes, and the tubes were spun at about 20000×g for 10 minutes at 4° C., before collecting the supernatant from the testing cells.
Protein concentrations in the collected supernatants were measured using BCA methods. The cell lysate was mixed with 5× NuPAGE SDS Loading Buffer and heated at 100° C. for 10 minutes in a heat block. Then 15 μL samples (15 μg) were loaded into 26-well SDS-PAGE gel (Novex, WXP81626BOX) and the gels were processed at 120 V for 1.5 hours, prior to electrotransfer to an NC membrane using a wet-transfer method with 250 mA for 1.5 hours. The resulting membrane was then blocked for 1 hours with LICOR blocking buffer (LI-COR, 927-70001), and was then incubated with a primary antibody 1:1000 (Anti-KRAS (LS-C175665)) that was previously prepared in block buffer at 4° C. overnight. Then, the membrane was washed three times with 1×TBST for 5 minutes each washing, and the membrane was incubated with a secondary antibody GAM 1:5000 (anti-mouse IgG (LI-COR, 926-68070)) for 1 hour at room temperature. The membrane was then washed three times with 1×TBST for 5 minutes each washing, and the membrane was read on LiCOR.
Table 2 below summarizes the normalized KRAS levels in NCI-H2030 cells that were treated with the exemplary compounds of Examples 1-3 for 24 hours.

BTK = target: T2, BTK (Homo sapiens, UniProt Q06187); test: BTK levels in NAMALWA cells (Western blot); assay type: cell-based; settings: 4 hours EBSS starvation
T2 construct: endogenous in cells; host or cells: NAMALWA
T2 sequence (Q06187 whole entry): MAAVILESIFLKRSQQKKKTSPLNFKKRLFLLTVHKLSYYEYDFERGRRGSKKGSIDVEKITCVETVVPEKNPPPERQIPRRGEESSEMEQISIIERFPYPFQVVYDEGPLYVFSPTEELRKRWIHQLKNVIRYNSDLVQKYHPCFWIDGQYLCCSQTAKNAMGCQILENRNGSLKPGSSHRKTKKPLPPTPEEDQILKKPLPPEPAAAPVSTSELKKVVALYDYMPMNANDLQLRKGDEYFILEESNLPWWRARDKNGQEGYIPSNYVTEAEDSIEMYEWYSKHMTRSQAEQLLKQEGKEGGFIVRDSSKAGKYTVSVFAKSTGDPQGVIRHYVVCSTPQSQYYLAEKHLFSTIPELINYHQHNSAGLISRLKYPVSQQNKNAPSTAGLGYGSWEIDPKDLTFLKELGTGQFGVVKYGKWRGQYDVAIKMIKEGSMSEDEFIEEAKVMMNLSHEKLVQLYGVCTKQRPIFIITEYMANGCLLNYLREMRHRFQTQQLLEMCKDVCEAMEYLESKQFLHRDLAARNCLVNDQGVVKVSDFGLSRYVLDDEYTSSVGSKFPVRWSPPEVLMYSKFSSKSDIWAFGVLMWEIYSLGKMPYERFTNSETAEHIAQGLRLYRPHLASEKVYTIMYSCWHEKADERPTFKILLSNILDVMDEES
Experimental: The following protocol was used to test the effect of exemplary compounds on BTK levels in NAMALWA cells.
On Day 1, NAMALWA cells were seeded in 6 well plates at concentration of 2×10^6/well and were incubated overnight. On Day 2, the cells were treated at indicated concentrations following 4 hours of starvation in Earle's Balanced Salt Solution (EBSS, Gibco, #24010-043). After compound treatment for 24 hours, cells were collected and samples were prepared. Fresh, ice cold 1×RIPA lysis buffer supplemented with protease and phosphatase inhibitors was then added to the cell samples, followed by incubation on ice for 30 minutes, and then cells samples were collected. Cell samples were then centrifuged at 4° C., 12,000 rpm for 15 minutes and the resulting supernatant was collected. Protein concentrations within the collected samples were then measured using BCA kit (Solarbio, PC0020), and the cell lysate was mixed with SDS loading buffer and heated at 100° C. for 5 minutes.
15 μg of protein from the samples prepared above was loaded in 4-12% Bis-Tris Gels in 1×MOPS buffer, and the samples were run at 120 V for 120 min. Transfer of the resulting gels was then carried out using the Transblot system with NC membrane, and the membranes were blocked with 5% BSA in TBST for 1 hr at room temperature. Membrane hybridization was then carried out overnight at 4° C. with primary antibodies (anti-BTK, Cell Signaling Technology #8547, Rabbit, 1:1000 diluted in 1% BSA in TBST), and the resulting membranes were washed with TBST for 3×10 min at RT, and then incubated with second antibodies (Goat anti-Rabbit IgG H&L, IRDye® 800CW, LI-COR, 926-32211, 1:5000 diluted in 1% BSA in TBST) in 1% BSA for 1 hr at room temperature. After washing the resulting membranes with TBST for 10 min, 3 times at room temperatures, the membranes were imaged using a Li-COR imaging system.
Table 3 below summarizes the normalized BTK levels in NAMALWA cells treated with the exemplary compounds of Examples 6-8 for 24 hours.

Normalized KRAS levels in NCI-H2030 cells treated with Compounds for 24 hours (KRAS; 3.33 μM compound concentration) [%]	Normalized KRAS levels in NCI-H2030 cells treated with Compounds for 24 hours (KRAS; 10 μM compound concentration) [%]	Normalized BTK levels in NAMALWA cells treated with Compounds for 24 hours after 4 hours of starvation in EBSS (BTK; 3.33 μM compound concentration) [%]	Normalized BTK levels in NAMALWA cells treated with Compounds for 24 hours after 4 hours of starvation in EBSS (BTK; 10 μM compound concentration) [%]	Structure (SMILES)	other results
63.0	65.7			C=C(F)C(=O)N1CCN(c2nc(OC[C@@H]3CCCN3CCCOCCOCCOc3c(Br)cc(C=C4C(=O)Nc5ccc(I)cc54)cc3Br)nc3c2CCN(c2cccc4cccc(Cl)c24)C3)C[C@@H]1CC#N [Example 3, 2-((S)-4-(7-(8-chloronaphthalen-1-yl)-2-(((S)-1-(3-(2-(2-(2,6-dibromo-4-((5-iodo-2-oxoindolin-3-ylidene)methyl)phenoxy)ethoxy)ethoxy)propyl)pyrrolidin-2-yl)methoxy)-5,6,7,8-tetrahydropyrido[3,4-d]pyrimidin-4-yl)-1-(2-fluoroacryloyl)piperazin-2-yl)acetonitrile]	
84.9	87.5			C=C(F)C(=O)N1CCN(c2nc(OC[C@@H]3CCCN3CCCOCCOCCOCCOc3c(Br)cc(C=C4C(=O)Nc5ccc(I)cc54)cc3Br)nc3c2CCN(c2cccc4cccc(Cl)c24)C3)C[C@@H]1CC#N [Example 1, 2-((S)-4-(7-(8-chloronaphthalen-1-yl)-2-(((S)-1-(3-(2-(2-(2-(2,6-dibromo-4-((5-iodo-2-oxoindolin-3-ylidene)methyl)phenoxy)ethoxy)ethoxy)ethoxy)propyl)pyrrolidin-2-yl)methoxy)-5,6,7,8-tetrahydropyrido[3,4-d]pyrimidin-4-yl)-1-(2-fluoroacryloyl)piperazin-2-yl)acetonitrile]	
45.1	48.6			C=C(F)C(=O)N1CCN(c2nc(OC[C@@H]3CCCN3CCCOCCOc3c(Br)cc(C=C4C(=O)Nc5ccc(I)cc54)cc3Br)nc3c2CCN(c2cccc4cccc(Cl)c24)C3)C[C@@H]1CC#N [Example 2, 2-((S)-4-(7-(8-chloronaphthalen-1-yl)-2-(((S)-1-(3-(2-(2,6-dibromo-4-((5-iodo-2-oxoindolin-3-ylidene)methyl)phenoxy)ethoxy)propyl)pyrrolidin-2-yl)methoxy)-5,6,7,8-tetrahydropyrido[3,4-d]pyrimidin-4-yl)-1-(2-fluoroacryloyl)piperazin-2-yl)acetonitrile]	
		67.0	48.2	Nc1ncnc2c1c(-c1ccc(Oc3ccccc3)cc1)nn2C1CCN(CCOCCOCCOCCN/C(=C2\C(=O)Nc3ccc(Br)cc32)c2cccc(O)c2)CC1.O=CO [Example 7, (3Z)-3-[[2-[2-[2-[2-[4-[4-amino-3-(4-phenoxyphenyl)pyrazolo[3,4-d]pyrimidin-1-yl]-1-piperidyl]ethoxy]ethoxy]ethoxy]ethylamino]-(3-hydroxyphenyl)methylene]-5-bromo-indolin-2-one formate]	
				Nc1ncnc2c1c(-c1ccc(Oc3ccccc3)cc1)nn2C1CCN(CCOCCOCCOCCOCCN2C(=O)C(=Cc3cc(Br)c(O)c(Br)c3)c3cc(I)ccc32)CC1.O=CO [Example 6, 1-(14-(4-(4-amino-3-(4-phenoxyphenyl)-1H-pyrazolo[3,4-d]pyrimidin-1-yl)piperidin-1-yl)-3,6,9,12-tetraoxatetradecyl)-3-(3,5-dibromo-4-hydroxybenzylidene)-5-iodo indolin-2-one formate]	Normalized BTK levels in NAMALWA cells treated with Compounds for 24 hours after 4 hours of starvation in EBSS (BTK; 10 μM column, footnote: tested at 11.1 uM from 100 uM top concentration): ~58.7%*; Normalized BTK levels in NAMALWA cells treated with Compounds for 24 hours after 4 hours of starvation in EBSS (BTK; 30 μM column, footnote: tested at 33.3 uM from 100 uM top concentration): ~30.1%*
		83.1	66.3	Nc1ncnc2c1c(-c1ccc(Oc3ccccc3)cc1)nn2C1CCN(CCOCCOCCN/C(=C2\C(=O)Nc3ccc(Br)cc32)c2cccc(O)c2)CC1 [Example 8, (3Z)-3-[[2-[2-[2-[4-[4-amino-3-(4-phenoxyphenyl)pyrazolo[3,4-d]pyrimidin-1-yl]-1-piperidyl]ethoxy]ethoxy]ethylamino]-(3-hydroxyphenyl)methylene]-5-bromo-indolin-2-one]	
